From patent US20060062841A1, “Liposomal vectors” (priority 2004, published 2006)

Key:
[1] = tested on: TNF-α; assay: Cytokine assay in the blood: TNF-α; format: in vivo, mouse
Description: FIG. 3A-C. Comparison the levels of TNF-α in blood (a), organs (b) and the blood levels of IL-12 and IFN-γ (c) after injection of the lipoplexes and safeplexes. The charge ratio of DOTA to DNA (+/−) (a) was varied from 0 to 12 and (b) and (c) was fixed at 6 to 1. The levels of cytokines were detected 2 h (a,b) or 6 h (c) after injection of the lipoplexes and safeplexes containing 25 μg pDNA. P<0.001 (three mice in each group).
FIG. 4A-B. Effect of (A) DEX dose and (B) time course on suppressing TNF-α. Mice were (three in each group) injected with the lipoplexes or safeplexes with (A) a varied ratio of DEX to DOTAP and (B) with a ratio of DEX to DOTAP of 1/10 (w/w). (a, b) The charge ratio of DOTAP to DNA was fixed at 6 to 1. P>0.5, P<0.001
FIG. 5. Inhibition of TNF-α production by other suppressors. The levels of TNF-α in the blood were analyzed 2 h after the injection of lipoplexes and safeplexes with a charge ratio of DNA to DOTAP of 1/6 (mol/mol). P<0.001 (n=3).
At indicated time points (2 h for TNF-α, 6 h for IL-12 and IFN-γ) following the injection of a tested sample containing 25 μg of pDNA, the blood and organs (the liver, lung and spleen) were collected. The blood was allowed to clot on ice for at least 4 h and then centrifuged at 3000 g for 20 min at 4° C., and serum was collected for the cytokine assay. For the organ assay, […] of each organ was added with 0.5 ml PBS buffer and homogenized for 20 s at the highest speed. The homogenates were frozen (in liquid nitrogen) and thawed (in 37° C. water bath) three times and then centrifuged at 14,000 g for 5 min. The supernatants were collected for the cytokine assay. The concentrations of cytokines (TNF-α, IL-12 and IFN-γ) were determined with mouse cytokine immunoassay kits (R&D System, Minneapolis, Minn.). Data were analyzed by the paired Student's t test using Excel. Data were considered statistically significant if P<0.01.

[2] = tested on: immune cells; conditions: sublethally irradiated mice, intraperitoneal injection; cited from earlier work

| Compound | effect on TNF-α production in blood ([1]; mouse, in vivo) | also measured |
| --- | --- | --- |
| COc1ccc2cc1Oc1ccc(cc1)C[C@H]1c3cc(c(OC)cc3CCN1C)Oc1c(OC)c(OC)cc3c1[C@H](C2)N(C)CC3 [tetrandrine] | showed the inhibitory effect | – |
| CN1C(=O)[C@]23CC4=CC=C[C@H](O)[C@H]4N2C(=O)[C@@]1(CO)SS3 [gliotoxin] | – | effect on TNF-α production in blood ([1]; carried by safeplexes, inhibitor/DOTAP 1/6 mol/mol, 2 h after injection): showed the inhibitory effect; recovery of immune cells [2]: significant delay |
| C[C@]12C=CC(=O)C=C1CC[C@@H]1[C@@H]2C(=O)C[C@@]2(C)[C@H]1CC[C@]2(O)C(=O)CO [prednisone] | showed the inhibitory effect | – |
| Dexamethasone-Water Soluble [free DEX] | – | inhibition of TNF-α ([1]; 32 μg free DEX intravenously, immediately followed by DNA/DOTAP complexes): less than 45% |
| COc1ccc2c(c1)c(CC(=O)O)c(C)n2C(=O)c1ccc(Cl)cc1 [indomethacin] | showed the inhibitory effect | – |
